Measurements: article PMC9888480, “Carboranyl-1,8-naphthalimide intercalators induce lysosomal membrane permeabilization and ferroptosis in cancer cell lines” (Journal of Enzyme Inhibition and Medicinal Chemistry, 2023)
Like-named read-outs stand apart in the source and are kept apart here.

How the values were obtained:
HepG2 [1] = test: In vitro cytotoxic activity, MTT assay; format: cell-based, human; conditions: concentration required to inhibit cell growth by 50%
From the text: The in vitro cytotoxic activity of the obtained carborane-1,8-naphthalimide conjugates was investigated by examining their cytotoxic effects using the MTT (3–(4,5-dimethylthiazol-2-yl)-2,5-diphenyltetrazolium bromide) dye assay[38]^,[39] against the human cancer cell line HepG2 established from hepatocellular carcinoma (for compounds 12–19 and 30–37) and against human lung fibroblasts (MRC-5) (for compounds 34–37). The IC50 values—the drug concentration (µM) required to inhibit cell growth by 50%—determined for the synthesised compounds are summarised in Table 2.
The cytotoxic properties of the synthesised compounds were evaluated using the human hepatocellular carcinoma cell line (HepG2) and human lung fibroblasts (MRC-5). The HepG2 and MRC-5 cell lines were purchased from American Type Culture Collection (ATCC, Manassas, VA, USA). The HepG2 cells were propagated in Eagle’s minimal essential medium (EMEM, ATCC, Manassas, VA, USA), supplemented with 10% inactivated foetal bovine serum (FBS, Life Technologies, Warsaw, Poland) and 100 units/ml penicillin G with […] streptomycin (Life Technologies, Warsaw, Poland). The cells were incubated at 37 °C in a humidified atmosphere containing 5% CO2. Upon reaching 80–90% confluency, the cells were harvested with 0.25% trypsin in 1 mM EDTA (Life Technologies, Warsaw, Poland) and transferred to 96-well microplates at 2 × 10^4 cells/well. After overnight incubation of cells at 37 °C in a humidified atmosphere containing 5% CO2, the culture medium was removed and replaced with a freshly prepared solution of compounds in the culture medium or medium itself as the control group. The stock solutions of each compound were prepared in DMSO at a concentration of 100 mM and were diluted with the growth medium supplemented with 10% FBS to ensure drug dissolution to obtain concentrations ranging from 0.1 to 1000 µM. Cytotoxicity was evaluated using the MTT assay. After incubation with the compounds, the cells were treated with MTT dye solution (5 mg/ml) for 2 h and lysed with a solvent solution containing DMF (45 ml), sodium dodecylsulfate (13.5 g), and distilled water (55 ml). After overnight incubation at 37 °C, optical density at 550 nm, with a reference wavelength of 670 nm, was measured in an ELISA reader (VarioskanLux, Thermo Scientific, Waltham, MA, USA). All determinations were carried out in triplicate. Results were calculated as the percentage of control group viability. The IC50 values of the compounds were calculated in an Excel add-in ED50V10.

ct-DNA [2] = test: UV–vis spectra titration with ct-DNA (binding constant Kb); set-up: species or system calf; conditions: for Kb compared to that of mitonafide: mitonafide Kb 2.54 × 10^5
Procedure: The measurements were performed by adding aliquots of DMSO stock solution of the tested compounds to the buffer solution (pH 7.4, 20 mM, 50 mM NaCl, Tris–HCl buffer, DMSO content of the final solutions = 0.54–0.65%) to the final concentration 10 µM. The tested compounds were incubated for 5 min, with increasing concentrations ranging from 0 to 15 µM of ct-DNA at 37 °C. Then, the UV–vis absorption spectra between 300 and 500 nm were recorded using a GBC Cintra10 UV–VIS spectrometer equipped with a GBC Thermocell Peltier Power Supply with the use of a 1-cm-path-length cell. The binding constant was calculated according to the following equation[70]: A0/A−A0= εG/εH−G−εG+ εG/εH−G−εG × 1/Kb[DNA] where Kb is the binding constant; A0 and a are absorbances of the free tested compound and the apparent one; εG and εH–G are their coefficient, respectively; [DNA] is the concentration of DNA in base pairs. The slope to intercept ratio of the plot between A0/A − A0 and 1/[DNA] yielded the binding constant.

ct-DNA [3] = test: Melting temperature (Tm) measurements of ct-DNA; format: binding, calf; conditions: r = [compound]/[ct-DNA] = 0.3, cacodylate buffer pH 7.0; Tm of free ct-DNA 74 °C; error ±0.5 °C
Procedure: The measurements were carried out by adding aliquots of DMSO stock solution of the tested compounds to the buffer solution (pH 7.0, 20 mM, cacodylate buffer, DMSO content of the final solution = 0.33–0.39%). Tm curves were collected at r = 0.3 (r = [compound]/[ct-DNA]) to assure the dominant binding mode. Thermal melting curves were plotted considering the absorption change at 260 nm as a function of temperature using a GBC Cintra10 UV–VIS spectrometer (Dandenong, Australia) equipped with a GBC Thermocell Peltier Power Supply (Dandenong, Australia) with the use of a 1-cm-path-length cell. The absorbance of the samples was monitored at 260 nm from 35 to 95 °C with a heating rate of 1 °C/min. Tm values are the midpoints or the transition curves determined from the maximum of the first derivative. ΔTm values were calculated by subtracting the Tm of the free nucleic acid from the Tm of the sample. All ΔTm values reported in the study were measured in triplicate. The error in ΔTm was ±0.5 °C.

ct-DNA [4] = test: Circular dichroism (CD) measurements of ct-DNA; format: binding, calf; conditions: increasing concentration of conjugate, r = 0.1–0.5, cacodylate buffer pH 7.0
Procedure: The measurements were performed by adding aliquots of DMSO stock solution of the tested compounds to the buffer solution (pH 7.0, 20 mM, cacodylate buffer, DMSO content of the final solutions = 0.22–1.30%). Changes in the CD spectrum of ct-DNA upon the addition of compound were measured at different molar ratios r = [compound]/[ct-DNA]. CD spectra were recorded on a JASCO J-815 CD spectrometer with a JASCO PFD-425S Peltier thermostated cell holder (JASCO, Tokyo, Japan) by using a square quartz cuvette of path length 0.5 cm (0.5 ml) in the 230–400 nm region. The CD profiles reported were an average of three successive scans with a scan time of 200 nm per minute and an appropriately corrected baseline. Temperature was maintained at 20 °C during the experiment.

ct-DNA [5] = test system: ct-DNA; set-up: method as in PMID 33803403; conditions: unmodified mitonafide and pinafide; cited from earlier work
HepG2 [6] = test system: HepG2; set-up: method as in PMID 31776032; conditions: footnote of Table 2, reference compounds; cited from earlier work
human topoisomerase IIα = target: human topoisomerase IIα; set-up: method as in PMID 35562989; conditions: earlier study of 4-carboranyl-1,8-naphthalimides; read-out: anti-Topo II activity IC50; cited from earlier work
HepG2 cells = test system: HepG2 cells; set-up: method as in PMID 31776032; conditions: earlier N-imide derivatives; cited from earlier work

| Molecule | IC50 (HepG2 [1]) | Kb compared to that of mitonafide (ct-DNA [2]) | ΔTm ct-DNA (ct-DNA [3]) | change in the CD spectra of ct-DNA (ct-DNA [4]) | further results |
| --- | --- | --- | --- | --- | --- |
| 4-[(2-[3–(1,2-Dicarba-closo-dodecaborane-1-yl)propanamido]ethyl)amino]-3-nitro-N-[2-(N-pyrrolidinyl)ethyl]-1,8-naphthalimide [Compound 14] | 8.97 ± 1.13 µM | similar | 3.33 °C | disturbed | – |
| 4-[(2-[3–(1,2-Dicarba-closo-dodecaborane-1-yl)propanamido]ethyl)amino]-N-[2-(dimethylamino)ethyl]-3-nitro-1,8-naphthalimide [Compound 12] | 21.7 ± 0.95 µM | similar | 3.33 °C | did not cause any appreciable change | – |
| 4-[(2-[3–(1,7-Dicarba-closo-dodecaborane-1-yl)propanamido]ethyl)amino]-3-nitro-N-[2-(N-pyrrolidinyl)ethyl]-1,8-naphthalimide [Compound 15] | 9.23 ± 0.35 µM | similar | 5.00 °C | disturbed | – |
| 4-[(2-[3–(1,7-Dicarba-closo-dodecaborane-1-yl)propanamido]ethyl)amino]-N-[2-(dimethylamino)ethyl]-3-nitro-1,8-naphthalimide [Compound 13] | 9.2 ± 0.68 µM | – | 3.67 °C | did not cause any appreciable change | – |
| 4-[(2-[(1,2-Dicarba-closo-dodecaborane-1-yl)ethylamino]ethyl)amino]-3-nitro-N-[2-(N-pyrrolidinyl)ethyl]-1,8-naphthalimide [Compound 32] | 8.12 ± 0.88 µM | approximately 1.5 fold | 0.33 °C | disturbed | – |
| 4-[(2-[(1,2-Dicarba-closo-dodecaborane-1-yl)ethylamino]ethyl)amino]-N-[2-(dimethylamino)ethyl]-3-nitro-1,8-naphthalimide [Compound 30] | 4.51 ± 0.66 µM | – | 3.33 °C | disturbed | – |
| 4-[(2-[(1,7-Dicarba-closo-dodecaborane-1-yl)ethylamino]ethyl)amino]-3-nitro-N-[2-(N-pyrrolidinyl)ethyl]-1,8-naphthalimide [Compound 33] | 20.6 ± 3.83 µM | – | 0.33 °C | did not cause any appreciable change | changes in the absorbance on addition of ct-DNA (ct-DNA [2]; UV–vis, 1.25–15 µM ct-DNA, 10 µM compound): changes in the absorbance were not observed |
| 4-[(2-[(1,7-Dicarba-closo-dodecaborane-1-yl)ethylamino]ethyl)amino]-N-[2-(dimethylamino)ethyl]-3-nitro-1,8-naphthalimide [Compound 31] | 11.6 ± 0.62 µM | similar | 1.67 °C | did not cause any appreciable change | bathochromic effect (ct-DNA [2]; UV–vis, addition of 1.25–15 µM ct-DNA to 10 µM compound): 6 nm |
| 4-[(6-[3–(1,2-Dicarba-closo-dodecaborane-1-yl)propanamido]hexyl)amino]-3-nitro-N-[2-(N-pyrrolidinyl)ethyl]-1,8-naphthalimide [Compound 18] | 4.79 ± 0.8 µM | approximately 1.5 fold | – | – | – |
| 4-[(6-[3–(1,2-Dicarba-closo-dodecaborane-1-yl)propanamido]hexyl)amino]-N-[2-(dimethylamino)ethyl]-3-nitro-1,8-naphthalimide [Compound 16] | 5.12 ± 0.87 µM | approximately 1.5 fold | – | – | – |
| 4-[(6-[3–(1,7-Dicarba-closo-dodecaborane-1-yl)propanamido]hexyl)amino]-3-nitro-N-[2-(N-pyrrolidinyl)ethyl]-1,8-naphthalimide [Compound 19] | 5.86 ± 0.56 µM | – | – | – | – |
| 4-[(6-[3–(1,7-Dicarba-closo-dodecaborane-1-yl)propanamido]hexyl)amino]-N-[2-(dimethylamino)ethyl]-3-nitro-1,8-naphthalimide [Compound 17] | 8.03 ± 1.25 µM | similar | – | – | – |
| O=C1c2cccc3cc([N+](=O)[O-])cc(c23)C(=O)N1CCN1CCCC1 [pinafide] | – | – | – | – | ΔTm (ct-DNA [5]): 6.50 °C; IC50 (HepG2 [6]): 1.23 µM |
| N-[2-(N-pyrrolidinyl)ethyl]-4-[(2–(3–(1,2-dicarba-closo-dodecaborane-1-yl)propanamido)ethyl)amino]-1,8-naphthalimide | – | – | – | – | IC50 (human topoisomerase IIα): 2.81 µM |
| N-[2-(dimethylamino)ethyl]-4-{1-[3-(1,2-dicarba-closo-dodecaborane-1-yl)propyl]-1H-1,2,3-triazol-4-yl}-1,8-naphthalimide | – | – | – | – | IC50 (human topoisomerase IIα): 0.58 µM |
| N-[2–(3,3′-commo-bis(1,2-dicarba-3-cobalta(III)-closo-dodecaborate-1-yl)ethyl)]-1,8-naphthalimide | – | – | – | – | intracellular ROS production (fluorescence intensity) (HepG2 cells): approximately twofold increase |
| N-[3–(1,2-dicarba-closo-dodecaborane-1-yl)propyl]-1,8-naphthalimide | – | – | – | – | intracellular ROS production (fluorescence intensity) (HepG2 cells): approximately twofold increase |
| N-{[2–(3,3′-commo-bis(1,2-dicarba-3-cobalta(III)-closo-dodecaborate-1-yl)ethyl]-1′-aminoethyl)}-1,8-naphthalimide] | – | – | – | – | intracellular ROS production (fluorescence intensity) (HepG2 cells): approximately twofold increase |
